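Interpolation was linear, between the two tested concentrations surrounding the appropriate level; five concentrations were tested over 48 hours in 96-well plates. TGI marks complete inhibition of growth.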
Legend:
Assay in all cases: DTP human tumour cell line panel, 48 h
TK-10 renal = test system: TK-10 renal
SF-295 CNS = test system: SF-295 CNS
HCC-2998 colon = test system: HCC-2998 colon
OVCAR-8 ovarian = test system: OVCAR-8 ovarian
DU-145 prostate = test system: DU-145 prostate
SNB-75 CNS = test system: SNB-75 CNS
IGROV1 ovarian = test system: IGROV1 ovarian
UACC-62 melanoma = test system: UACC-62 melanoma
HCT-15 colon = test system: HCT-15 colon
OVCAR-5 ovarian = test system: OVCAR-5 ovarian
MOLT-4 leukemia = test system: MOLT-4 leukemia
A498 renal = test system: A498 renal
HS 578T breast = test system: HS 578T breast
OVCAR-4 ovarian = test system: OVCAR-4 ovarian
SK-OV-3 ovarian = test system: SK-OV-3 ovarian
M14 melanoma = test system: M14 melanoma
U251 CNS = test system: U251 CNS
KM12 colon = test system: KM12 colon
HOP-62 NSCLC = test system: HOP-62 NSCLC
MCF7 breast = test system: MCF7 breast
CCRF-CEM leukemia = test system: CCRF-CEM leukemia
NCI-H460 lung = test system: NCI-H460 lung
MDA-MB-435 = test system: MDA-MB-435
OVCAR-3 ovarian = test system: OVCAR-3 ovarian
A549 NSCLC = test system: A549 NSCLC
HOP-92 NSCLC = test system: HOP-92 NSCLC
LXFL 529 NSCLC = test system: LXFL 529 NSCLC
SK-MEL-5 melanoma = test system: SK-MEL-5 melanoma
HOP-18 NSCLC = test system: HOP-18 NSCLC
SF-268 CNS = test system: SF-268 CNS
SW-620 colon = test system: SW-620 colon
NCI-H23 lung = test system: NCI-H23 lung
MDA-N = test system: MDA-N
HL-60(TB) leukemia = test system: HL-60(TB) leukemia
M19-MEL melanoma = test system: M19-MEL melanoma
DLD-1 colon = test system: DLD-1 colon
UO-31 renal = test system: UO-31 renal
BT-549 breast = test system: BT-549 breast
MALME-3M melanoma = test system: MALME-3M melanoma
UACC-257 melanoma = test system: UACC-257 melanoma
786-0 renal = test system: 786-0 renal
HCT-116 colon = test system: HCT-116 colon
SN12C renal = test system: SN12C renal
HT29 colon = test system: HT29 colon
PC-3 prostate = test system: PC-3 prostate
SNB-19 CNS = test system: SNB-19 CNS
SF-539 CNS = test system: SF-539 CNS
COLO 205 colon = test system: COLO 205 colon
NCI/ADR-RES ovarian = test system: NCI/ADR-RES ovarian
SK-MEL-28 melanoma = test system: SK-MEL-28 melanoma
EKVX NSCLC = test system: EKVX NSCLC
SR leukemia = test system: SR leukemia
MDA-MB-231 breast = test system: MDA-MB-231 breast
K-562 leukemia = test system: K-562 leukemia
ACHN renal = test system: ACHN renal
NCI-H522 lung = test system: NCI-H522 lung
NCI-H226 lung = test system: NCI-H226 lung
RPMI-8226 leukemia = test system: RPMI-8226 leukemia

## COc1ccc(/C=N/N/C(O)=c2/sc(=C(C#N)C#N)n(-c3ccccc3)c2=N)cc1
TK-10 renal
  TGI: > 100 µM
SF-295 CNS
  TGI: > 70.5 µM
HCC-2998 colon
  TGI: > 100 µM
OVCAR-8 ovarian
  TGI: > 100 µM
DU-145 prostate
  TGI: > 100 µM
SNB-75 CNS
  TGI: 38.3 µM
IGROV1 ovarian
  TGI: > 100 µM
UACC-62 melanoma
  TGI: > 100 µM
HCT-15 colon
  TGI: > 100 µM
OVCAR-5 ovarian
  TGI: > 100 µM
MOLT-4 leukemia
  TGI: > 100 µM
A498 renal
  TGI: > 100 µM
HS 578T breast
  TGI: > 100 µM
OVCAR-4 ovarian
  TGI: > 100 µM
SK-OV-3 ovarian
  TGI: > 100 µM
M14 melanoma
  TGI: > 100 µM
U251 CNS
  TGI: > 100 µM
KM12 colon
  TGI: > 100 µM
HOP-62 NSCLC
  TGI: > 94 µM
MCF7 breast
  TGI: > 100 µM
CCRF-CEM leukemia
  TGI: > 100 µM
NCI-H460 lung
  TGI: > 100 µM
MDA-MB-435
  TGI: > 100 µM
OVCAR-3 ovarian
  TGI: > 100 µM
A549 NSCLC
  TGI: > 100 µM
HOP-92 NSCLC
  TGI: > 70.8 µM
LXFL 529 NSCLC
  TGI: > 100 µM
SK-MEL-5 melanoma
  TGI: > 100 µM
HOP-18 NSCLC
  TGI: > 100 µM
SF-268 CNS
  TGI: > 100 µM
SW-620 colon
  TGI: > 100 µM
NCI-H23 lung
  TGI: > 100 µM
MDA-N
  TGI: > 100 µM
HL-60(TB) leukemia
  TGI: > 100 µM
M19-MEL melanoma
  TGI: > 100 µM
DLD-1 colon
  TGI: > 100 µM
UO-31 renal
  TGI: > 100 µM
BT-549 breast
  TGI: > 100 µM
MALME-3M melanoma
  TGI: > 100 µM
UACC-257 melanoma
  TGI: > 100 µM
786-0 renal
  TGI: > 100 µM
HCT-116 colon
  TGI: > 100 µM
SN12C renal
  TGI: > 100 µM
HT29 colon
  TGI: > 100 µM
PC-3 prostate
  TGI: > 100 µM
SNB-19 CNS
  TGI: > 100 µM
SF-539 CNS
  TGI: > 88.6 µM
COLO 205 colon
  TGI: > 100 µM
NCI/ADR-RES ovarian
  TGI: > 100 µM
SK-MEL-28 melanoma
  TGI: > 100 µM
EKVX NSCLC
  TGI: > 100 µM
SR leukemia
  TGI: > 100 µM
MDA-MB-231 breast
  TGI: > 100 µM
K-562 leukemia
  TGI: > 100 µM
ACHN renal
  TGI: > 100 µM
NCI-H522 lung
  TGI: > 100 µM
NCI-H226 lung
  TGI: > 100 µM
RPMI-8226 leukemia
  TGI: > 100 µM
